Ten compounds from US6528618B1, “Anti-inflammatory peptides derived from C-reactive protein” (Yeda Research and Development Co. Ltd., priority 1997, dated 2003) can be followed below.

“Also recorded” adds a separate entry of the source. Where a SMILES comes first, the peptide text is derived from it. A value given as a limit tells only on which side of the number the result lay.

The target in assay [1] is T1, human leukocyte cathepsin G (hCG) (Homo sapiens, UniProt P08311).
T1 construct: Neutrophils (1.4 billion) were isolated from whole blood obtained from a single healthy laboratory donor; from tissue; host or cells: neutrophils from whole blood of a single healthy donor
T1 sequence (P08311 21-243 limits assumed): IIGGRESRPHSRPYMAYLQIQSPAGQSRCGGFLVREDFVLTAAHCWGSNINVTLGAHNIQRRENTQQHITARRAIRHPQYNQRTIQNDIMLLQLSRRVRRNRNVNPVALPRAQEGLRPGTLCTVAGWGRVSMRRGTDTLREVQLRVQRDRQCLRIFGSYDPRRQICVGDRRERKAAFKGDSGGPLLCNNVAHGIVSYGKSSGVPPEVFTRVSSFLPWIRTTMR
The experiment in a line: In vitro inhibition of hCG (cleavage of Suc-AAPF-NA). It counts as biochemical. The procedure:
(§1) The enzymatic activity was assayed with MeOSuc-AAPV-NA for hLE determination and Suc-AAPF-NA for hCG determination (both in 100 mM Hepes buffer, pH 7.4, containing 0.05% of the […] detergent Brij-35). The activities of the individual enzymatic fractions were 100% free from cross-contamination. […] The fractions containing hLE and hCG were dialyzed each against 0.1% pyridinium acetate, pH 5.3, divided into 20 aliquots, lyophilized, and stored at −20 ° C. until use.
vi) Inhibition experiments with hCG: Similar conditions to hLE inhibition experiments were used except the substrate: 80 μL of 1.80 mM Suc-AAPF-NA. The enzyme was dissolved in 800 μL buffer, and the reaction was monitored every 6 min for 1 hour. The final volume was 240 μL containing: 5% DMSO, 1-100 μM peptide, 600 μM substrate, and 1.2 μg enzyme (about 40 picomol).
For hCG, V is determined by fitting a quadratic equation to the total kinetic data (60 min), using the least squares method and calculating V at t=0.
The hCG inhibitory capability of CRP-derived peptides was evaluated by inhibiting the enzymatic cleavage of Suc-AAPF-NA as described in Materials and Methods (section vi).

Assay [2] addresses T2, human leukocyte elastase (hLE) (Homo sapiens, UniProt P08246).
T2 construct: Neutrophils (1.4 billion) were isolated from whole blood obtained from a single healthy laboratory donor; from tissue; host or cells: neutrophils from whole blood of a single healthy donor
T2 sequence (P08246 30-247 limits assumed): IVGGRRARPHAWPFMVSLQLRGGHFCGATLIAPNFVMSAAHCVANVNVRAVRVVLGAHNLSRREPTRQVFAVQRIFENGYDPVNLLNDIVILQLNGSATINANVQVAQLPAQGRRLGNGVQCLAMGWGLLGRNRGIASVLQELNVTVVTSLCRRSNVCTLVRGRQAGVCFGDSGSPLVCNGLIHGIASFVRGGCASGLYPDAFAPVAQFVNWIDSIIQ
The experiment in a line: In vitro inhibition of hLE (cleavage of MeOSuc-AAPV-NA). Format: biochemical. The following applies: for fold decrease in hLE inhibitory activity compared to peptide 6: relative to peptide 6. Here is the method: as §1
(v) Inhibition experiments with hLE: Peptides were dissolved in 100 mM Hepes buffer pH 7.4 containing 0.1% Brij-35 with 10%. DMSO to yield 300 μM solutions, which were used to make further dilutions with the same buffer, and 80 μL aliquots were added in duplicates to 96-well plates. The substrate, 600 μM MeOSuc-AAPV-NA in the same buffer with 5% DMSO, was added to each well in addition to the blank wells, and the plate was placed in the plate reader equilibrated to 37 C (Dynateck MR-6000). Lyophilized aliquots of hLE were dissolved in 1600 μL of 100 mM Hepes buffer without DMSO, and 80 μL of the enzyme solution was added to the peptides and substrate to initiate the reaction. […] The final volume was 240 μL containing: 5% DMSO, 1-100 μM of peptide, 200 μM substrate, and 0.75 μg (˜25 picomol) enzyme.
(viii) Calculations: For hLE, V is determined by fitting a linear equation to the first 6 time-points (10 min) of the kinetics data using the least squares method. […] Several inhibitor concentration in duplicates and two control wells were used to fit a linear equation to graphs of Vo/Vi−1 vs. [I] for each inhibitor using the least squares method (8 data points for each inhibitor). From calculating the error in the slope of the equation, the relative error for Ki was deduced:
Ki={slope*(1+[S]/Km)}^−1because Ki=[I]*{(1+[S]/Km)*(Vo/Vi−1)}^−1.
The hLE inhibitory capability of CRP-derived peptides was evaluated by inhibiting the enzymatic cleavage of MeOSuc-AAPV-NA as described in Materials and Methods (section v).

[3] abbreviates: hCG Ki [μM], Table 1, substrate Suc-AAPF-NA 600 μM, pH 7.4.
Where [4] appears, read: hLE Ki [μM], Table 1, substrate MeOSuc-AAPV-NA 200 μM, pH 7.4, 37 C.
Setting [5] is: hLE Ki [μM], Table 2, substrate MeOSuc-AAPV-NA 200 μM, pH 7.4, 37 C.

By Ki is commonly meant a dissociation constant, usually derived from enzyme kinetics or from competition with a known ligand. Regarding `CC[C@H](C)[C@H](NC(=O)[C@H](CO)NC(=O)[C@H](Cc1ccc(O)cc1)NC(=O)CNC(=O)[C@H](CCCNC(=N)N)NC(=O)[C@@H](NC(=O)[C@H](CO)NC(=O)[C@H](CO)NC(=O)[C@H](CC(C)C)NC(=O)[C@H](CCC(=O)O)NC(=O)[C@@H](NC(=O)[C@H](Cc1ccc(O)cc1)NC(=O)[C@H](Cc1ccccc1)NC(=O)[C@H](Cc1c[nH]cn1)NC(=O)[C@@H](N)CC(C)C)[C@@H](C)O)[C@@H](C)O)C(=O)O` [Peptide 1, Leu-His-Phe-Tyr-Thr-Glu-Leu-Ser-Ser-Thr-Arg-Gly-Tyr-Ser-Ile] (H-LHFYTELSSTRGYSI-OH), the Ki in assay [1] (setting [3]) and in assay [2] (setting [4]) was above 200 µM each time. With `CC[C@H](C)[C@H](NC(=O)[C@H](CO)NC(=O)[C@H](Cc1ccc(O)cc1)NC(=O)CNC(=O)[C@H](CCCNC(=N)N)NC(=O)[C@@H](NC(=O)[C@H](CO)NC(=O)[C@H](CO)NC(=O)[C@H](CC(C)C)NC(=O)[C@@H](N)CCC(=O)O)[C@@H](C)O)C(=O)N[C@@H](Cc1ccccc1)C(=O)N[C@@H](CO)C(=O)N[C@@H](Cc1ccc(O)cc1)C(=O)N[C@@H](C)C(=O)N[C@H](C(=O)O)[C@@H](C)O` [Peptide 2, Glu-Leu-Ser-Ser-Thr-Arg-Gly-Tyr-Ser-Ile-Phe-Ser-Tyr-Ala-Thr] (H-ELSSTRGYSIFSYAT-OH), the Ki in assay [1] (setting [3]) and in assay [2] (setting [4]) was above 200 µM in each case. With `CC[C@H](C)[C@H](NC(=O)[C@H](CO)NC(=O)[C@H](Cc1ccc(O)cc1)NC(=O)CNC(=O)[C@@H](N)CCCNC(=N)N)C(=O)N[C@@H](Cc1ccccc1)C(=O)N[C@@H](CO)C(=O)N[C@@H](Cc1ccc(O)cc1)C(=O)N[C@@H](C)C(=O)N[C@H](C(=O)N[C@@H](CCCCN)C(=O)N[C@@H](CCCNC(=N)N)C(=O)N[C@@H](CCC(N)=O)C(=O)N[C@@H](CC(=O)O)C(=O)N[C@@H](CC(N)=O)C(=O)O)[C@@H](C)O` [Peptide 3, Arg-Gly-Tyr-Ser-Ile-Phe-Ser-Tyr-Ala-Thr-Lys-Arg-Gln-Asp-Asn] (H-RGYSIFSYATKRQDN-OH), the Ki in assay [1] (setting [3]) and in assay [2] (setting [4]) was above 200 µM in each case. For the compound `CC[C@H](C)[C@H](NC(=O)[C@H](CC(C)C)NC(=O)[C@@H](NC(=O)[C@H](CCC(=O)O)NC(=O)[C@H](CC(N)=O)NC(=O)[C@H](CC(=O)O)NC(=O)[C@H](CCC(N)=O)NC(=O)[C@H](CCCNC(=N)N)NC(=O)[C@H](CCCCN)NC(=O)[C@@H](NC(=O)[C@H](C)NC(=O)[C@H](Cc1ccc(O)cc1)NC(=O)[C@H](CO)NC(=O)[C@@H](N)Cc1ccccc1)[C@@H](C)O)[C@@H](C)CC)C(=O)N[C@@H](Cc1ccccc1)C(=O)O` [Peptide 4, Phe-Ser-Tyr-Ala-Thr-Lys-Arg-Gln-Asp-Asn-Glu-Ile-Leu-Ile-Phe] (H-FSYATKRQDNEILIF-OH), the Ki in assay [1] (setting [3]) and in assay [2] (setting [4]) was above 200 µM throughout. Consider `CC[C@H](C)[C@H](NC(=O)[C@H](CC(=O)O)NC(=O)[C@H](CCCCN)NC(=O)[C@H](CO)NC(=O)[C@H](Cc1c[nH]c2ccccc12)NC(=O)[C@H](Cc1ccccc1)NC(=O)[C@@H](NC(=O)[C@H](CC(C)C)NC(=O)[C@@H](NC(=O)[C@H](CCC(=O)O)NC(=O)[C@H](CC(N)=O)NC(=O)[C@H](CC(=O)O)NC(=O)[C@H](CCC(N)=O)NC(=O)[C@H](CCCNC(=N)N)NC(=O)[C@@H](N)CCCCN)[C@@H](C)CC)[C@@H](C)CC)C(=O)O` [Peptide 5, Lys-Arg-Gln-Asp-Asn-Glu-Ile-Leu-Ile-Phe-Trp-Ser-Lys-Asp-Ile] (H-KRQDNEILIFWSKDI-OH; N-terminus and C-terminus assumed), for which the Ki in assay [1] (hCG inhibitory activity range) fell in the range of 150 to 200 µM; in assay [2] (hLE inhibitory activity range), 50 to 100 µM. The “hLE inhibitory activity (in words)” value in assay [2] is on record as “two orders of magnitude less potent than peptide 6; also recorded: lowered the inhibitory capability by more than one order of magnitude”. Consider `CC[C@H](C)[C@H](NC(=O)[C@H](CC(=O)O)NC(=O)[C@H](CCCCN)NC(=O)[C@H](CO)NC(=O)[C@H](Cc1c[nH]c2ccccc12)NC(=O)[C@H](Cc1ccccc1)NC(=O)[C@@H](NC(=O)[C@H](CC(C)C)NC(=O)[C@@H](NC(=O)[C@@H](N)CC(=O)O)[C@@H](C)CC)[C@@H](C)CC)C(=O)NCC(=O)N[C@@H](Cc1ccc(O)cc1)C(=O)N[C@@H](CO)C(=O)N[C@@H](Cc1ccccc1)C(=O)N[C@H](C(=O)O)[C@@H](C)O` [Peptide 18, Asp-Ile-Leu-Ile-Phe-Trp-Ser-Lys-Asp-Ile-Gly-Tyr-Ser-Phe-Thr] (H-DILIFWSKDIGYSFT-OH; N-terminus and C-terminus assumed), for which the “fold decrease in hLE inhibitory activity compared to peptide 6” value in assay [2] is 10 fold. As to `CC[C@H](C)[C@H](NC(=O)[C@H](CC(=O)O)NC(=O)[C@H](CCCCN)NC(=O)[C@@H]1CCCN1C(=O)[C@H](Cc1c[nH]c2ccccc12)NC(=O)[C@H](Cc1ccccc1)NC(=O)[C@@H](NC(=O)[C@H](CC(C)C)NC(=O)[C@@H](NC(=O)[C@@H](N)CCC(=O)O)[C@@H](C)CC)[C@@H](C)CC)C(=O)NCC(=O)N[C@@H](Cc1ccc(O)cc1)C(=O)N[C@@H](CO)C(=O)N[C@@H](Cc1ccccc1)C(=O)N[C@H](C(=O)O)[C@@H](C)O` [Peptide 19, Glu-Ile-Leu-Ile-Phe-Trp-Pro-Lys-Asp-Ile-Gly-Tyr-Ser-Phe-Thr] (H-EILIFWPKDIGYSFT-OH; N-terminus and C-terminus assumed), the “hLE inhibitory activity (in words)” value in assay [2] was “two orders of magnitude loss of inhibitory activity”. The Ki in assay [2] (setting [5]) is above 200 µM. As to `CC[C@H](C)[C@H](NC(=O)CNC(=O)[C@H](Cc1ccc(O)cc1)NC(=O)[C@H](CO)NC(=O)[C@H](Cc1ccccc1)NC(=O)[C@@H](N)[C@@H](C)O)C(=O)N[C@@H](CC(=O)O)C(=O)N[C@@H](CCCCN)C(=O)N[C@@H](CO)C(=O)N[C@@H](Cc1c[nH]c2ccccc12)C(=O)N[C@@H](Cc1ccccc1)C(=O)N[C@H](C(=O)N[C@@H](CC(C)C)C(=O)N[C@H](C(=O)N[C@@H](CCC(=O)O)C(=O)O)[C@@H](C)CC)[C@@H](C)CC` [Peptide 24, Thr-Phe-Ser-Tyr-Gly-Ile-Asp-Lys-Ser-Trp-Phe-Ile-Leu-Ile-Glu] (H-TFSYGIDKSWFILIE-OH; N-terminus and C-terminus assumed), the “fold decrease in hLE inhibitory activity compared to peptide 6” value in assay [2] was determined as 30 fold.

`CC[C@H](C)[C@H](NC(=O)[C@H](CC(=O)O)NC(=O)[C@H](C)NC(=O)[C@H](CO)NC(=O)[C@H](Cc1c[nH]c2ccccc12)NC(=O)[C@H](Cc1ccccc1)NC(=O)[C@@H](NC(=O)[C@H](CC(C)C)NC(=O)[C@@H](NC(=O)[C@@H](N)CCC(=O)O)[C@@H](C)CC)[C@@H](C)CC)C(=O)O` [Peptide 25, Glu-Ile-Leu-Ile-Phe-Trp-Ser-Ala-Asp-Ile] (H-EILIFWSADI-OH; N-terminus and C-terminus assumed): the “hLE inhibitory activity (in words)” value in assay [2] is “slightly more potent than peptide 14”. This compound also registered an inhibition constant (Ki) in assay [2] (setting [5]) of 3 ± 0.5 µM. For `CC[C@H](C)[C@H](NC(=O)[C@H](CC(=O)O)NC(=O)[C@@H](NC(=O)[C@H](CO)NC(=O)[C@H](Cc1c[nH]c2ccccc12)NC(=O)[C@H](Cc1ccccc1)NC(=O)[C@@H](NC(=O)[C@H](CC(C)C)NC(=O)[C@@H](NC(=O)[C@@H](N)CCC(=O)O)[C@@H](C)CC)[C@@H](C)CC)C(C)C)C(=O)O` [Peptide 26, Glu-Ile-Leu-Ile-Phe-Trp-Ser-Val-Asp-Ile] (H-EILIFWSVDI-OH; N-terminus and C-terminus assumed), the “hLE inhibitory activity (in words)” value in assay [2] is given as “slightly more potent than peptide 14”.
